The text below walks through data of US9663526B2, “Aminopyrimidinyl compounds” (Pfizer Inc., priority 2014, dated 2017).

Broadly, the IC50 is the concentration that inhibits the measured activity by half.

Assay [1] concerns interferon alpha signalling (TYK2 and JAK1), STAT3 phosphorylation. As to the kind of experiment: Human whole blood INFα induced STAT3 phosphorylation assay.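 Also: flow cytometry with anti-pSTAT3 staining, signal as percent-positive × mean fluorescence, baseline from unstimulated wells, 11-point dilution series, IC50 as inhibition of pSTAT3.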 The format is cell-based. The note with it: compound 60 minutes at 37° C., IFNα 5000 U/ml for 15 minutes, pSTAT3 in lymphocyte population by flow cytometry, read-out: HWB IFN alpha IC50. In general terms: In flow cytometry, cells or beads pass a laser one at a time.

The target in assay [2] is recombinant human kinase domain of JAK1 (Homo sapiens (Human), UniProt P23458). In words: JAK Caliper enzyme assay at 1 mM ATP (JAK1).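 Also: microfluidic mobility-shift readout of synthetic fluorescent peptide phosphorylation, percent product converted from peak height, inhibition relative to DMSO-only wells as uninhibited baseline, room temperature incubation.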 The format is biochemical.
Sequence of recombinant human kinase domain of JAK1 (P23458 875-1153): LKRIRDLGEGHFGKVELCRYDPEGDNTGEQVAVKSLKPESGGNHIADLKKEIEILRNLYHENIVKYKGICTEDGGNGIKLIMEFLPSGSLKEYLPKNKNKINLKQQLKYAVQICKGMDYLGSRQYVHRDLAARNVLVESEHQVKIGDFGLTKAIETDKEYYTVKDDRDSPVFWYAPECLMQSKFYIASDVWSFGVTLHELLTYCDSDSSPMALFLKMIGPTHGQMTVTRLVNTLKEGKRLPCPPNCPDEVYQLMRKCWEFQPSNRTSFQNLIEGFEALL
The target of assay [3] is recombinant human kinase domain of JAK3 (Homo sapiens (Human), UniProt P52333). As to the kind of experiment: JAK Caliper enzyme assay at 1 mM ATP (JAK3).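 Also: microfluidic mobility-shift readout of synthetic peptide phosphorylation, percent product converted from peak heights, normalized to DMSO-only wells as uninhibited baseline, room temperature incubation.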 The format is biochemical.
Sequence of recombinant human kinase domain of JAK3 (P52333 822-1111): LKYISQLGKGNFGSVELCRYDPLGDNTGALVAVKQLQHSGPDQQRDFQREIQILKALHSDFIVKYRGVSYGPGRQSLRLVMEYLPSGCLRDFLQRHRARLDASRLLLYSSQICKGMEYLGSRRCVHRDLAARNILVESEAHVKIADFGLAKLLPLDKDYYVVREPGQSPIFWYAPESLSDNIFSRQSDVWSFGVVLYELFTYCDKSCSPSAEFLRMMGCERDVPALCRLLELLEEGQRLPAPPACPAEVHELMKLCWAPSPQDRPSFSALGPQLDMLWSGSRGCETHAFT
For assay [4], the target named is recombinant human kinase domain of JAK2 (Homo sapiens (Human), UniProt O60674). As to the kind of experiment: JAK Caliper enzyme assay at 1 mM ATP (JAK2).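 Also: microfluidic mobility-shift read-out of fluorescent synthetic peptide phosphorylation, percent product converted from peak heights, room temperature, DMSO-only wells as uninhibited baseline, inhibition curve fit.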 It counts as biochemical.
Sequence of recombinant human kinase domain of JAK2 (O60674 849-1124): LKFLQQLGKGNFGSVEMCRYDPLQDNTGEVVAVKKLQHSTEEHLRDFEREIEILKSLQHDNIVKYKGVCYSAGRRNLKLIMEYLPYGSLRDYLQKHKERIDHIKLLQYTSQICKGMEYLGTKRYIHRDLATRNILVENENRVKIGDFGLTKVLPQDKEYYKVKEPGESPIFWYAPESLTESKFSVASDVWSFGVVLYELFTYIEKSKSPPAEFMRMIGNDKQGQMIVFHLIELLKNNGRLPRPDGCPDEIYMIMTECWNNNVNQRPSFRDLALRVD
For assay [5], the target named is recombinant human kinase domain of TYK2 (Homo sapiens (Human), UniProt P29597). As to the kind of experiment: JAK Caliper enzyme assay at 1 mM ATP (TYK2).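 Also: microfluidic mobility-shift readout of synthetic peptide phosphorylation by TYK2, tuned to 20–30% conversion at room temperature, reaction stopped with EDTA, DMSO-only wells as uninhibited baseline.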 The format is biochemical.
Sequence of recombinant human kinase domain of TYK2 (P29597 897-1176): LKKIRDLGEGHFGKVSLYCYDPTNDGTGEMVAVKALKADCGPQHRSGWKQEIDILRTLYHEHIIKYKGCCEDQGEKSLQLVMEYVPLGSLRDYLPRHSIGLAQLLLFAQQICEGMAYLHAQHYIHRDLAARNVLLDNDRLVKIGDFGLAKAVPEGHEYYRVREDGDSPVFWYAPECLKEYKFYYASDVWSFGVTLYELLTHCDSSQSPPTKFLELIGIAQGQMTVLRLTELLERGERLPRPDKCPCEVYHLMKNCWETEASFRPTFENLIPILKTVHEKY
[6] abbreviates: 1 mM ATP, read-out: IC50 (nM) JAK1.
[7] abbreviates: 1 mM ATP, read-out: IC50 (nM) JAK3.
Where [8] appears, read: 1 mM ATP, read-out: IC50 (nM) TYK2.

Like-named read-outs stand apart in the source and are kept apart here.

For the molecule `Cn1cc(Nc2nccc(N3C[C@H]4CC[C@@H](C3)N4C3CC(C#N)C3)n2)cn1` (stereo partly drawn) [Example 59, 3-[(1R,5S)-3-{2-[(1-methyl-1H-pyrazol-4-yl)amino]pyrimidin-4-yl}-3,8-diazabicyclo[3.2.1]oct-8-yl]cyclobutanecarbonitrile], the IC50 in assay [1] was determined as 84 nM; in assay [2] (setting [6]), 78 nM; in assay [3] (setting [7]) it was 8800 nM; in assay [4], 236 nM; in assay [5] (setting [8]) it was 62 nM.
For `CNC(=O)c1ncc(Nc2nccc(N3C[C@H]4CC[C@@H](C3)N4C(=O)NCC(F)(F)F)n2)cc1C` [Example 89], the half-inhibitory concentration (IC50) amounted to 118 nM in assay [1]; 10 nM in assay [2] (setting [6]); 4430 nM in assay [3] (setting [7]); 65 nM in assay [4]; 9 nM in assay [5] (setting [8]).
On the same counts, the results for `CCNC(=O)N1[C@@H]2CC[C@H]1CN(c1ccnc(Nc3cnc(C(=O)NC)c(Cl)c3)n1)C2` [Example 75, (1R,5S)-3-(2-{[5-chloro-6-(methylcarbamoyl)pyridin-3-yl]amino}pyrimidin-4-yl)-N-ethyl-3,8-diazabicyclo[3.2.1]octane-8-carboxamide] are 751 nM, 462 nM, > 10000 nM, 1290 nM and 66 nM.
On to `Cn1cc(Nc2ncc(F)c(N3C[C@@]4(CO)C[C@@]4(NC(=O)[C@@H]4C[C@H]4C#N)C3)n2)cn1` [Example 110, (1R,2R)-2-cyano-N-[(1S,5S)-3-{5-fluoro-2-[(1-methyl-1H-pyrazol-4-yl)amino]pyrimidin-4-yl}-5-(hydroxymethyl)-3-azabicyclo[3.1.0]hex-1-yl]cyclopropanecarboxamide], for which the IC50 in assay [1] came to 146 nM; in assay [2] (setting [6]) it was 29 nM; in assay [3] (setting [7]) it was 928 nM; in assay [4], 455 nM; in assay [5] (setting [8]), 58 nM.
As to `Cn1cc(Nc2nccc(N3C[C@H]4CC[C@@H](C3)N4C3(CC#N)COC3)n2)cn1` [Example 84, {3-[(1R,5S)-3-{2-[(1-methyl-1H-pyrazol-4-yl)amino]pyrimidin-4-yl}-3,8-diazabicyclo[3.2.1]oct-8-yl]oxetan-3-yl}acetonitrile], the IC50 in assay [1] was 156 nM; in assay [2] (setting [6]), 141 nM; in assay [3] (setting [7]), > 10000 nM; in assay [4], 155 nM; in assay [5] (setting [8]), 62 nM.
Regarding `CCNC(=O)c1ccc(Nc2nccc(N3CC4CC(C3)N4C(=O)C3CC3)n2)cc1C` [Example 113, 4-({4-[6-(cyclopropylcarbonyl)-3,6-diazabicyclo[3.1.1]hept-3-yl]pyrimidin-2-yl}amino)-N-ethyl-2-methylbenzamide], the IC50 in assay [1] was 939 nM; in assay [2] (setting [6]), 8580 nM; in assay [3] (setting [7]), > 10000 nM; in assay [4], 7860 nM; in assay [5] (setting [8]), 82 nM.
`CC(CC#N)N1[C@@H]2CC[C@H]1CN(c1ccnc(Nc3cnn(C)c3)n1)C2` (stereo partly drawn) [Example 80, 3-[(1R,5S)-3-{2-[(1-methyl-1H-pyrazol-4-yl)amino]pyrimidin-4-yl}-3,8-diazabicyclo[3.2.1 l]oct-8-yl]butanenitrile]: the 50% inhibitory concentration (IC50) was 112 nM in assay [1]; 190 nM in assay [2] (setting [6]); > 10000 nM in assay [3] (setting [7]); 436 nM in assay [4]; 79 nM in assay [5] (setting [8]).
Regarding `O=C([C@@H]1CC1(F)F)N1[C@@H]2CC[C@H]1CN(c1ccnc(Nc3cnc(N4CC(O)C4)c(F)c3)n1)C2` [Example 22, [(1S)-2,2-difluorocyclopropyl][(1R,5S)-3-(2-{[5-fluoro-6-(3-hydroxyazetidin-1-yl)pyridin-3-yl]amino}pyrimidin-4-yl)-3,8-diazabicyclo[3.2.1]oct-8-yl]methanone], the concentration for half-maximal inhibition (IC50) in assay [1] is 410 nM; in assay [2] (setting [6]) it was 490 nM; in assay [3] (setting [7]) it was > 10000 nM; in assay [4] it was 312 nM; in assay [5] (setting [8]) it was 55 nM.
Taken in the same sequence, the figures for `CC(C)(C#N)c1ccc(Nc2nccc(N3C[C@H]4CC[C@@H](C3)N4C(=O)[C@@H]3CC3(F)F)n2)cn1` [Example 26, 2-[5-({4-[(1R,5S)-8-{[(1S)-2,2-difluorocyclopropyl]carbonyl}-3,8-diazabicyclo[3.2.1]oct-3-yl]pyrimidin-2-yl}amino)pyridin-2-yl]-2-methylpropanenitrile] were 247 nM, 60 nM, > 10000 nM, 192 nM and 25 nM.
Turning to `CCNC(=O)c1ccc(Nc2ncc(F)c(N3CC4CC(C3)N4C(=O)C(C)(C)F)n2)cc1C` [Example 112, N-ethyl-4-({5-fluoro-4-[6-(2-fluoro-2-methylpropanoyl)-3,6-diazabicyclo[3.1.1]hept-3-yl]pyrimidin-2-yl}amino)-2-methylbenzamide], the IC50 in assay [1] was 775 nM; in assay [2] (setting [6]), 4070 nM; in assay [3] (setting [7]), > 10000 nM; in assay [4], 3040 nM; in assay [5] (setting [8]) it was 21 nM.
For `CNC(=O)c1ncc(Nc2nccc(N3C[C@H]4CC[C@@H](C3)N4C(=O)C3CC3)n2)cc1Cl` [Example 30, 3-chloro-5-({4-[(1R,5S)-8-(cyclopropylcarbonyl)-3,8-diazabicyclo[3.2.1]oct-3-yl]pyrimidin-2-yl}amino)-N-methylpyridine-2-carboxamide], the half-inhibitory concentration (IC50) in assay [1] is 653 nM; in assay [2] (setting [6]), 1160 nM; in assay [3] (setting [7]), > 10000 nM; in assay [4] it was 2130 nM; in assay [5] (setting [8]), 97 nM.
Take `CNC(=O)c1ncc(Nc2nccc(N3C[C@H]4CC[C@@H](C3)N4[C@H]3C[C@@H](C#N)C3)n2)cc1C` (single isomer, unassigned) [Example 61]: the IC50 in assay [1] was determined as 135 nM; in assay [2], 31 nM; in assay [3] it was 4080 nM; in assay [4], 44 nM; in assay [5] (setting [8]), 18 nM.
Regarding `Cn1cc(Nc2nccc(N3C[C@H]4CC[C@@H](C3)N4C(=O)C3(F)CC3)n2)cn1` [Example 46, (1-fluorocyclopropyl)[(1R,5S)-3-{2-[(1-methyl-1H-pyrazol-4-yl)amino]pyrimidin-4-yl}-3,8-diazabicyclo[3.2.1]oct-8-yl]methanone], the IC50 amounted to 209 nM in assay [1]; 173 nM in assay [2] (setting [6]); 4160 nM in assay [3] (setting [7]); 526 nM in assay [4]; 84 nM in assay [5] (setting [8]).
On to `C[C@H](CO)c1ccc(Nc2nccc(N3C[C@H]4CC[C@@H](C3)N4C(=O)[C@@H]3CC3(F)F)n2)cn1` (single isomer, unassigned) [Example 12], for which the half-maximal inhibitory concentration (IC50) in assay [1] was 88 nM; in assay [2] (setting [6]) it was 79 nM; in assay [3] (setting [7]), > 10000 nM; in assay [4], 80 nM; in assay [5], 28 nM.
Turning to `CCNC(=O)c1ccc(Nc2nccc(N3CC4CC(C3)N4C(=O)C(C)(F)F)n2)cc1` [Example 114, 4-({4-[6-(2,2-difluoropropanoyl)-3,6-diazabicyclo[3.1.1]hept-3-yl]pyrimidin-2-yl}amino)-N-ethylbenzamide], the IC50 in assay [1] was 166 nM; in assay [2] (setting [6]), 955 nM; in assay [3] (setting [7]), > 10000 nM; in assay [4] it was 1860 nM; in assay [5] (setting [8]), 62 nM.
